Data reported in patent US20220118121A1, “PROSTATE SPECIFIC MEMBRANE ANTIGEN (PSMA) LIGANDS WITH IMPROVED TISSUE SPECIFICITY” (Ruprecht-Karls-Universität Heidelberg, priority 2019, published 2022).
Where a SMILES comes first, the peptide text is derived from it. [ ]: non-standard residue; d: D form. The star is where a group is joined. DOTA = O=C(O)CN1CCN(CC(=O)O)CCN(CC(=O)*)CCN(CC(=O)O)CC1; EuK = O=C(O)CC[C@H](NC(=O)N[C@@H](CCCCN*)C(=O)O)C(=O)O; 2Nal = N[C@@H](Cc1ccc2ccccc2c1)C(=O)O; Trx = NC[C@H]1CC[C@H](C(=O)O)CC1

What was measured:
[1] = test system: prostate cancer; details: cited from earlier work
[2] = target: T1, PSMA (Homo sapiens, UniProt Q04609); test: competitive cell binding assay vs 68Ga-labeled PSMA-10 on LNCaP cells; details: LNCaP cells, 0.8 nM 68Ga-PSMA-10 radioligand; read-out: Specific Binding Affinity IC50
T1 construct: host or cells: LNCaP cells
Protocol: (§1) PSMA^+ LNCaP cells (ATCC CRL-1740) were cultured in RPMI medium. Cells were grown at 37° C. in humidified air with 5% C02 and were harvested using trypsin-ethylenediaminetetraacetic acid.
(§2) The competitive cell binding assay and internalization experiments were performed according to Eder M et al. (2012), Bioconjug Chem 23(4):688.
Briefly, the cells (10^5 per well) were incubated with a 0.8 nM solution of ^68Ga-labeled radioligand [Glu-urea-Lys(Ahx)]2-HBED-CC (PSMA-10, precursor ordered from ABX, Radeberg, Germany) in the presence of 12 different concentrations of analyte (0-5000 nM, 100 μL/well). After incubation, the mixture was removed and the wells were washed 3 times with PBS using a multiscreen vacuum manifold (Millipore, Billerica, Mass.). Cell-bound radioactivity was measured using a gamma counter (Packard Cobra II, GMI, Minnesota, USA). The 50% inhibitory concentration (IC50) values were calculated by fitting the data using a nonlinear regression algorithm (GraphPad Software).

[3] = test system: PSMA+ LNCaP cells; test: cell surface binding and internalization of radiolabeled compounds; format: cell-based; details: for Specific Cell Surface Binding / Specific Internalization / Cell Surface binding / Internalization: 68Ga-labeled; for Specific cell surface bound / Specific internalized: 177Lu-labeled, LNCaP cells
Protocol: as §1, §2
For internalization experiments, 10^5 cells per well were seeded in poly-L-lysine coated 24-well cell culture plates 24 h before incubation. After washing, the cells were incubated with 30 nM of the ^68Ga- or ^177Lu-radiolabeled compound for 45 min at 37° C. and at 4° C., respectively. Cellular uptake was terminated by washing 3 times with 1 mL of ice-cold PBS. To remove surface-bound radioactivity, cells were incubated twice with 0.5 mL glycine-HCl in PBS (50 mM, pH=2.8) for 5 min. The cells were washed with 1 mL of ice-cold PBS and lysed using 0.3 N NaOH (0.5 mL). The surface-bound and the internalized fractions were measured in a gamma counter. The cell uptake was calculated as percent of the initially added radioactivity bound to 10^5 cells [% ID/10^5 cells].

T1 sequence (Q04609 whole entry): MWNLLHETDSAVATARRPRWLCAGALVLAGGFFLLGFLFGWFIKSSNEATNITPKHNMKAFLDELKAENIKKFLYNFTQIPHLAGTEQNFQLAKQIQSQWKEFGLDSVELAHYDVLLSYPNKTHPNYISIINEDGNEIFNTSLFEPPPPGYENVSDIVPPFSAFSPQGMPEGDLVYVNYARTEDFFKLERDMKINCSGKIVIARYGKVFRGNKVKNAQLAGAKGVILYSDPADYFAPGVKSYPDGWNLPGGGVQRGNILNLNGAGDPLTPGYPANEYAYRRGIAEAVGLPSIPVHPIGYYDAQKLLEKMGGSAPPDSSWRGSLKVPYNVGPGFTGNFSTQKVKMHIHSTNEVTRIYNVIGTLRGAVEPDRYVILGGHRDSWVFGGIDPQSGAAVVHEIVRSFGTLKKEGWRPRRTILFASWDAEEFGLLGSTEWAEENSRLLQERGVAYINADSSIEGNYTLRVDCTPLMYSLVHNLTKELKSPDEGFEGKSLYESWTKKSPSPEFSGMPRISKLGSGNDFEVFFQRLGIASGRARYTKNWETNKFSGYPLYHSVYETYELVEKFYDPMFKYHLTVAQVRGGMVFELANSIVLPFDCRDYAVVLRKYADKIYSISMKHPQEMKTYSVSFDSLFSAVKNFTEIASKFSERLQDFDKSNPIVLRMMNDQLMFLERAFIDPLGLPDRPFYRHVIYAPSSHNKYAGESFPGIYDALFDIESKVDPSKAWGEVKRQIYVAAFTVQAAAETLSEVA

| SMILES | PSA value ([1]; both patients) | response of patients ([1]; two patients with extremely advanced and end-stage disease) | IC50 [2] | Specific Cell Surface Binding [3] | Specific Internalization [3] | Cell Surface binding ([3]; blocked) | Internalization ([3]; blocked) | Cell Surface binding ([3]; not blocked) | Internalization ([3]; not blocked) | Specific cell surface bound [3] | Specific internalized [3] |
| --- | --- | --- | --- | --- | --- | --- | --- | --- | --- | --- | --- |
| O=C([O-])CC[C@H](NC(=O)N[C@@H](CCCCNC(=O)[C@H](Cc1ccc2ccccc2c1)NC(=O)C1CCC(CNC(=O)CN2CCN(CC(=O)[O-])CCN(CC(=O)[O-])CCN(CC(=O)[O-])CC2)CC1)C(=O)[O-])C(=O)[O-].[225Ac].[H+].[H+].[H+] (stereo partly drawn) [225Ac-PSMA-617] | fell below the detectability limit | complete remission |  |  |  |  |  |  |  |  |  |
| O=C(O)CC[C@H](NC(=O)N[C@@H](CCCCNC(=O)[C@H](Cc1ccc2ccccc2c1)NC(=O)[C@H]1CC[C@H](CNC(=O)[C@H](Cc2c[nH]cn2)NC(=O)[C@H](CCC(=O)O)NC(=O)[C@H](Cc2c[nH]cn2)NC(=O)[C@H](CCC(=O)O)NC(=O)[C@H](Cc2c[nH]cn2)NC(=O)[C@H](CCC(=O)O)NC(=O)CN2CCN(CC(=O)O)CCN(CC(=O)O)CCN(CC(=O)O)CC2)CC1)C(=O)O)C(=O)O [PS-2, DOTA-(EH)3-CHx-2NaI-PSMA] ({DOTA}-EHEHEH[Trx][2Nal]-EuK) |  |  | 37 ± 11.4 nM | 1.27 ± 0.15 % ID/10^5 cells | 0.61 ± 0.15 % ID/10^5 cells | 0.060 ± 0.017 % ID/10^5 cells | 0.187 ± 0.032 % ID/10^5 cells | 1.333 ± 0.127 % ID/10^5 cells | 0.797 ± 0.122 % ID/10^5 cells | 9.55 ± 1.61 % ID/10^5 cells | 6.00 ± 0.71 % ID/10^5 cells |
| O=C(O)CC[C@H](NC(=O)N[C@@H](CCCCNC(=O)[C@H](Cc1ccc2ccccc2c1)NC(=O)[C@H]1CC[C@H](CNC(=O)[C@H](Cc2c[nH]cn2)NC(=O)[C@H](CCC(=O)O)NC(=O)[C@H](Cc2c[nH]cn2)NC(=O)[C@H](CCC(=O)O)NC(=O)[C@H](Cc2c[nH]cn2)NC(=O)[C@H](CCC(=O)O)NC(=O)[C@H](Cc2c[nH]cn2)NC(=O)[C@H](CCC(=O)O)NC(=O)CN2CCN(CC(=O)O)CCN(CC(=O)O)CCN(CC(=O)O)CC2)CC1)C(=O)O)C(=O)O [PS-4, DOTA-(EH)4-CHx-2NaI-PSMA] ({DOTA}-EHEHEHEH[Trx][2Nal]-EuK) |  |  | 46.7 ± 37.3 nM | 1.33 ± 0.09 % ID/10^5 cells | 0.52 ± 0.04 % ID/10^5 cells | 0.083 ± 0.029 % ID/10^5 cells | 0.151 ± 0.048 % ID/10^5 cells | 1.420 ± 0.113 % ID/10^5 cells | 0.676 ± 0.070 % ID/10^5 cells |  |  |
| O=C(O)CC[C@H](NC(=O)N[C@@H](CCCCNC(=O)[C@H](Cc1c[nH]cn1)NC(=O)[C@H](CCC(=O)O)NC(=O)[C@H](Cc1c[nH]cn1)NC(=O)[C@H](CCC(=O)O)NC(=O)[C@H](Cc1c[nH]cn1)NC(=O)[C@H](CCC(=O)O)NC(=O)[C@H](Cc1ccc2ccccc2c1)NC(=O)[C@H]1CC[C@H](CNC(=O)CN2CCN(CC(=O)O)CCN(CC(=O)O)CCN(CC(=O)O)CC2)CC1)C(=O)O)C(=O)O [PS-1, DOTA-CHx-2NaI-(EH)3-PSMA] ({DOTA-Trx}-[2Nal]EHEHEH-EuK) |  |  | 56 ± 7.7 nM | 1.09 ± 0.17 % ID/10^5 cells | 0.46 ± 0.11 % ID/10^5 cells | 0.069 ± 0.013 % ID/10^5 cells | 0.212 ± 0.037 % ID/10^5 cells | 1.162 ± 0.183 % ID/10^5 cells | 0.676 ± 0.155 % ID/10^5 cells | 6.84 ± 0.06 % ID/10^5 cells | 4.32 ± 0.03 % ID/10^5 cells |
